The record followed here is patent US7825146B2, “Sulfonamide derivative having isoxazole ring” (Shionogi & Co., Ltd., priority 2003, dated 2010).

As usually defined, the IC50 is the midpoint of a concentration-inhibition curve. Low readings indicate inhibition by little substance, high ones a need for much substance.

The target of this assay is T1, MMP-12 (Homo sapiens, UniProt P39900).
T1 construct: In regard to MMP-12, catalytic domain(^100Phe˜^263Gly) was amplified with RT-PCR; His-tag; enterokinase digestion-site; made in house
The experiment in a line: Assay for inhibitory activities on MMPs (fluorogenic MOCAc peptide substrate): MMP-12. It counts as biochemical. The following applies: catalytic domain 100Phe-263Gly. How it is done: In regard to MMP-12, catalytic domain(^100Phe˜^263Gly) was amplified with RT-PCR from Human Placenta Total RNA. This was cloned in Escherichia. coli expression vector pTrc99AHE inserted with His-tag sequence and enterokinase digestion-site, induced and expressed by IPTG (Isopropyl-β-D-thiogalactopyranoside) and expressed in a insoluble fraction. Isolation of MMP-12 from an insoluble fraction was carried out by dissolving in modifier (6M urea) by a usual method and purification with metal chelate chromatography (Ni Chelateing Sepharose). And then removing modifier (6M urea) with dialysis and refolding of the enzyme spontaneously gave activated MMP-12.
The enzymatic activity on MMPs was analyzed by the method described in “C. Graham Knight, Frances Willenbrock and Gillian Murphy: A novel coumarin-labelled peptide for sensitive continuous assays of the matrix metalloproteinases: FEBS LETT., 296, (1992), 263-266”. The substrate: MOCAc-Pro-Leu-Gly-Leu-A2Pr(DNP)-Ala-Arg-NH2 was purchased from Peptide Institute, Inc., Osaka, Japan. The measurement of the inhibitory activities (IC50) was carried out by the following four methods; • (A) Reaction with substrate, enzyme (MMPs) and inhibitor • (B) Reaction with substrate and inhibitor, without enzyme • (C) Reaction with substrate and enzyme (MMPs), without inhibitor • (D) Reaction with substrate only IC50 values were calculated by using the following formula and each fluorescence values of above four methods (A to D).
The value of inhibitory activity against MMP-2, MMP-8, MMP-9, MMP-12, and MMP-13 measured by above mentioned methods are shown in Table 36, 37, 38, 39, and 40 respectively.

T1 sequence (P39900 100-263): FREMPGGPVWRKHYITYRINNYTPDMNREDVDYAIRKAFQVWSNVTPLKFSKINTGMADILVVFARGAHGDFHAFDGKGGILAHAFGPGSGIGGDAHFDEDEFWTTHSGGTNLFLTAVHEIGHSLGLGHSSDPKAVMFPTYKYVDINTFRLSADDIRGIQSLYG

Molecule `CCCc1ccc(-c2cc(-c3ccc(S(=O)(=O)N[C@@H](CC(C)C)C(=O)O)cc3)no2)cc1` [Example C-58] returned an IC50 of 0.000216 µM.
In the case of `CC(C)[C@H](NS(=O)(=O)c1ccc(-c2cc(-c3ccc(Cl)c(F)c3)no2)cc1)C(=O)O` [Example A-41] it was 0.00047 µM; in that of `C[C@H](NS(=O)(=O)c1ccc(-c2cc(-c3ccc(OC(F)(F)F)cc3)no2)cc1)C(=O)O` [Example A-6], 0.000889 µM.
Then `CC(C)[C@H](NS(=O)(=O)c1ccc(-c2cc(-c3ccc(Cl)cc3)on2)cc1)C(=O)O` [Example C-21], with 0.000336 µM; and `CC(C)[C@H](NS(=O)(=O)c1ccc(-c2cc(-c3ccc(Br)cc3)on2)cc1)C(=O)O` [Example C-23], with 0.000205 µM.
In the case of `O=C(O)C[C@@H](NS(=O)(=O)c1ccc(-c2cc(-c3ccc(Cl)c(F)c3)on2)cc1)C(=O)O` [Example C-117] it was 0.000967 µM; in that of `Cc1ccc(-c2cc(-c3ccc(S(=O)(=O)N[C@@H](CC(C)C)C(=O)O)cc3)no2)cc1F` [Example C-84], 0.000245 µM; in that of `CC(C)C[C@H](NS(=O)(=O)c1ccc(-c2cc(-c3ccc(F)c(F)c3)no2)cc1)C(=O)O` [Example A-84], 0.00069 µM.
As to `CC(C)C[C@H](NS(=O)(=O)c1ccc(-c2cc(-c3ccc(Br)cc3)on2)cc1)C(=O)O` [Example C-66], the IC50 amounted to 0.000218 µM.
With `Cc1ccc(-c2cc(-c3ccc(S(=O)(=O)N[C@@H](C)C(=O)O)cc3)no2)cc1` [Example C-2], the IC50 was 0.000899 µM.
In the case of `CC(C)[C@@H](NS(=O)(=O)c1ccc(-c2cc(-c3ccc(Br)cc3)no2)cc1)C(=O)O` [Example A-24] it was 0.000806 µM.
Then `CC(C)[C@@H](NS(=O)(=O)c1ccc(-c2cc(-c3ccc(Cl)c(F)c3)no2)cc1)C(=O)O` [Example A-40], with 0.000861 µM.
`COc1ccc(-c2cc(-c3ccc(S(=O)(=O)N[C@H](C(=O)O)C(C)C)cc3)on2)cc1F` [Example A-39]: the IC50 was 0.000708 µM. The IC50 values of the last two molecules are within 1.5-fold of each other.
Then `COc1ccc(-c2cc(-c3ccc(S(=O)(=O)N[C@@H](CC(C)C)C(=O)O)cc3)no2)cc1` [Example C-64], with 0.000432 µM; and `CCC(C)[C@H](NS(=O)(=O)c1ccc(-c2cc(-c3ccc(Br)cc3)on2)cc1)C(=O)O` (some centres unmarked) [Example C-103], with 0.000177 µM; and `CC(C)C[C@H](NS(=O)(=O)c1ccc(-c2cc(-c3ccc(Cl)c(F)c3)no2)cc1)C(=O)O` [Example A-81], with 0.000357 µM.
Then `CCC(C)[C@H](NS(=O)(=O)c1ccc(-c2cc(-c3ccc(C(F)(F)F)cc3)no2)cc1)C(=O)O` (some centres unmarked) [Example A-102], with 0.000592 µM; and `CC(C)C[C@H](NS(=O)(=O)c1ccc(-c2cc(-c3ccc(Cl)c(F)c3)on2)cc1)C(=O)O` [Example C-82], with 0.000233 µM.
`Cc1ccc(-c2cc(-c3ccc(S(=O)(=O)N[C@@H](C(=O)O)C(C)(C)C)cc3)no2)cc1` [Example C-109] came in with a 50% inhibitory concentration (IC50) of 0.000951 µM.
In the case of `CC(C)[C@H](NS(=O)(=O)c1ccc(-c2cc(-c3ccc(F)c(F)c3)on2)cc1)C(=O)O` [Example C-50] it was 0.000754 µM; in that of `CCC(C)[C@H](NS(=O)(=O)c1ccc(-c2cc(-c3ccc(Cl)c(F)c3)no2)cc1)C(=O)O` (some centres unmarked) [Example A-104], 0.000379 µM.
Then `CCC(C)[C@H](NS(=O)(=O)c1ccc(-c2cc(-c3ccc(C)c(F)c3)on2)cc1)C(=O)O` (some centres unmarked) [Example C-105], with 0.000174 µM.
In the case of `CC(C)C[C@H](NS(=O)(=O)c1ccc(-c2cc(-c3ccc(C(F)(F)F)cc3)on2)cc1)C(=O)O` [Example C-73] it was 0.000251 µM.
In turn, `CC(C)C[C@H](NS(=O)(=O)c1ccc(-c2cc(-c3ccc(Br)cc3)no2)cc1)C(=O)O` [Example A-66] returned an IC50 of 0.00043 µM.
Then `CC(C)[C@H](NS(=O)(=O)c1ccc(-c2cc(-c3ccc(C(F)(F)F)cc3)no2)cc1)C(=O)O` [Example A-21], with 0.000608 µM.
In the case of `CSc1ccc(-c2cc(-c3ccc(S(=O)(=O)N[C@@H](CC(C)C)C(=O)O)cc3)no2)cc1` [Example C-62] it was 0.00029 µM.
Then `Cc1ccc(-c2cc(-c3ccc(S(=O)(=O)N[C@@H](C(=O)O)C(C)C)cc3)no2)cc1F` [Example C-38], with 0.000245 µM; and `Cc1ccc(-c2cc(-c3ccc(S(=O)(=O)N[C@@H](CC(C)C)C(=O)O)cc3)on2)cc1` [Example A-61], with 0.00081 µM.
Consider `Cc1ccc(-c2cc(-c3ccc(S(=O)(=O)N[C@H](C(=O)O)C(C)C)cc3)no2)cc1F` [Example C-39], for which it took 0.000238 µM to reach half-maximal inhibition (IC50). This IC50 is about 3.4-fold lower than that of the molecule before.
In the case of `Cc1ccc(-c2cc(-c3ccc(S(=O)(=O)N[C@H](Cc4ccccc4)C(=O)O)cc3)no2)cc1` [Example C-122] it was 0.000877 µM; in that of `Cc1ccc(-c2cc(-c3ccc(S(=O)(=O)N[C@@H](CC(C)C)C(=O)O)cc3)no2)cc1` [Example C-54], 0.000343 µM.
In the case of `CC(C)[C@H](NS(=O)(=O)c1ccc(-c2cc(-c3ccc(Br)cc3)no2)cc1)C(=O)O` [Example A-25] it was 0.000518 µM; in that of `CC(C)C[C@H](NS(=O)(=O)c1ccc(-c2cc(-c3ccc(C(F)(F)F)cc3)no2)cc1)C(=O)O` [Example A-63], 0.000584 µM.
On to `Cc1ccc(-c2cc(-c3ccc(S(=O)(=O)N[C@@H](C(=O)O)C(C)C)cc3)no2)cc1` [Example C-8], for which the IC50 stood at 0.000559 µM.
In the case of `CC(C)[C@H](NS(=O)(=O)c1ccc(-c2cc(-c3ccc(Cl)cc3)no2)cc1)C(=O)O` [Example A-23] it was 0.00086 µM; in that of `CCc1ccc(-c2cc(-c3ccc(S(=O)(=O)N[C@H](Cc4ccccc4)C(=O)O)cc3)no2)cc1` [Example C-123], 0.00076 µM.
Then `CC(C)[C@H](NS(=O)(=O)c1ccc(-c2cc(-c3ccc(C(F)(F)F)cc3)on2)cc1)C(=O)O` [Example C-28], with 0.000209 µM; and `CC(C)[C@@H](NS(=O)(=O)c1ccc(-c2cc(-c3ccc(Cl)c(Cl)c3)on2)cc1)C(=O)O` [Example C-40], with 0.000575 µM.
Then `CCC(C)[C@H](NS(=O)(=O)c1ccc(-c2cc(-c3ccc(F)cc3)on2)cc1)C(=O)O` (some centres unmarked) [Example C-106], with 0.000781 µM.
Take `CC(C)[C@@H](NS(=O)(=O)c1ccc(-c2cc(-c3ccc(C(F)(F)F)cc3)no2)cc1)C(=O)O` [Example A-20]: half-maximal inhibition (IC50) was put at 0.000723 µM.
Then `CC(C)C[C@H](NS(=O)(=O)c1ccc(-c2cc(-c3ccc(Cl)cc3)no2)cc1)C(=O)O` [Example A-65], with 0.000492 µM; and `CCC(C)[C@H](NS(=O)(=O)c1ccc(-c2cc(-c3ccc(C)cc3)on2)cc1)C(=O)O` (some centres unmarked) [Example C-94], with 0.000256 µM; and `CC(C)[C@@H](NS(=O)(=O)c1ccc(-c2cc(-c3ccc(F)c(F)c3)on2)cc1)C(=O)O` [Example C-49], with 0.000834 µM.
In the case of `Cc1ccc(-c2cc(-c3ccc(S(=O)(=O)N[C@H](C(=O)O)C(C)C)cc3)no2)cc1` [Example C-9] it was 0.000409 µM; in that of `CCC(C)[C@H](NS(=O)(=O)c1ccc(-c2cc(-c3ccc(F)c(F)c3)on2)cc1)C(=O)O` (some centres unmarked) [Example C-108], 0.000525 µM.
Then `CCc1ccc(-c2cc(-c3ccc(S(=O)(=O)N[C@@H](C)C(=O)O)cc3)no2)cc1` [Example C-3], with 0.000547 µM; and `CCc1ccc(-c2cc(-c3ccc(S(=O)(=O)N[C@@H](CC(C)C)C(=O)O)cc3)no2)cc1` [Example C-56], with 0.000289 µM.
As to `CC(C)C[C@H](NS(=O)(=O)c1ccc(-c2cc(-c3ccc(OC(F)(F)F)cc3)on2)cc1)C(=O)O` [Example C-71], the 50% inhibitory concentration (IC50) is 0.000203 µM.
In the case of `COc1ccc(-c2cc(-c3ccc(S(=O)(=O)N[C@H](CC(=O)O)C(=O)O)cc3)no2)cc1F` [Example C-118] it was 0.000904 µM.
In the case of `CCC(C)[C@H](NS(=O)(=O)c1ccc(-c2cc(-c3ccc(Cl)cc3)on2)cc1)C(=O)O` (some centres unmarked) [Example C-107] it was 0.000257 µM; in that of `COc1ccc(-c2cc(-c3ccc(S(=O)(=O)N[C@@H](C(=O)O)C(C)C)cc3)on2)cc1F` [Example A-38], 0.000908 µM.
Then `CCc1ccc(-c2cc(-c3ccc(S(=O)(=O)N[C@@H](CC(C)C)C(=O)O)cc3)no2)s1` [Example C-77], with 0.000676 µM; and `CC(C)C[C@H](NS(=O)(=O)c1ccc(-c2cc(-c3ccc(Cl)cc3)on2)cc1)C(=O)O` [Example C-68], with 0.000295 µM.
